Key:
RA1 cells [1] = assay: Anti-tumor activity in a SCID/RA1 xenograft model of Burkitt's lymphoma (Example 11); format: in vivo, SCID mice; settings: for Mean Survival / Median Survival / Mice alive at the end of the study = day 81 / % Increased life span: 10 mg/kg, IV, Q4D × 6; for % Increased life span: ILS % = [(T-C)/C]×100 of median survival; for survival of mice (in words): SCID mice with RA1 cells
Description: The therapeutic effect of test antibodies was evaluated in an animal model of Burkitt's lymphoma. In the model used, systemic cancer in SCID mice causes hind limb paralysis and infiltrates all major organs.
Forty-eight hours before tumor cell injection, female SCID mice (7-9 weeks old, weighing 17-22 g) were irradiated with a γ-source (1.8 Gy, ^60Co). […] The tumor bearing mice were distributed on D4 into 10 groups of 10 mice each based on body weight using Vivo Manager® software (Biosystemes, Dijon, France). […] Treatment started on D4: mice were administered intravenously a 5 mg/kg or a 10 mg/kg dose of test antibody on days 4, 8, 12, 16, 20 and 24. The vehicle for injection was 10 mM Na-Citrate, 150 mM NaCl, 50 mM Arginine (pH 5.5). Body weights were measured and recorded twice weekly. Mean survival time was calculated for each group as the mean of the day of death, and median survival time was calculated for each group as the median of the day of death. The efficacy of each test antibody was judged by the increased life span value (ILS). ILS % was expressed as follows: ILS %=[(T-C)/C]×100. T was the median of the survival times of animals treated with each test antibody, and C was the median survival time of control animals treated with vehicle.

Human U937 cells = assay: Inhibition of SDF-1alpha-induced chemotaxis/cell migration (Example 9); format: cell-based; settings: U-937, SDF-1alpha 3 nM, AMD3100 1 μM
Description: Human U937 cells were grown in RPMI-1640 medium with 10% FCS, then washed twice and incubated in serum-free RPMI-1640 at 37° C. for 3 hours (5% CO2). Starved […] cells were re-suspended in medium for chemotaxis (RPMI-1640 with 0.3% BSA) at 3*10^5 cells per ml and • a) incubated for 30 min at room temperature (not-pre-treated positive control for assay); • b) pre-treated with AMD 3100 at 1 μM concentration (positive control for chemotaxis inhibition) for 30 min at room temperature; or • c) pre-treated with a test IgG at 100 nM concentration for 30 min at room temperature.
Respective not-pre-treated or pre-treated U937 cells were then placed into the top wells of a microchemotaxis chamber (15,000 cells per well).
A polycarbonate filter with a […] pore diameter separated top and bottom chambers.
After incubation for one hour at 37° C. (5% CO2), the cell suspensions were removed from the top wells, and the wells were washed once with PBS. […] The number of migrated cells in each well was determined using a Guava PCA-96 cytometer. […]
Maximal SDF-1 induced migration was calculated as the difference in the number of migrated cells between conditions (al) and (a) in the Table immediately above. The percentage of migration inhibition for a test antibody was then calculated by reference to this maximal migration.

RA1 cells [2] = assay: Antibody-dependent cell-mediated cytotoxicity (ADCC), LDH release (Example 10); format: cell-based, human; settings: E:T ratio 20:1
Description: ADCC was measured with RA1 cells as the target cells (T) and using the CytoTox 96® Non-Radioactive Cytotoxicity Assay (Promega Corp., Fitchburg, Wis.)), which assay measures lactate dehydrogenase (LDH) release. A round-bottom 96-well culture plate was set up with the following control and experimental wells (100 microliter final volumes):
a. RA1 cells (for target cell spontaneous LDH release control) b. RA1 cells (for target cell maximum LDH release control) c. Culture medium (RPMI 1640 Medium (1X) without phenol red) used for volume correction control d. Culture medium (for culture medium background control) e. RA1 plus effector cells (E) (for target plus effector cell spontaneous LDH release control) f. Experimental wells with effector and target cells (10^5) with serial dilutions of each test IgG or without test IgG.
The plates were centrifuged at 1600 rpm for 2 minutes and incubated at 37° C. for 4 hours. One hour prior to supernatant harvest, 20 microliters of Lysis Solution (10×) were added to the conditions b) and c). The plates were centrifuged at 1600 rpm for 2 minutes, and 50 microliters of the supernatant from each well of the assay plates were transferred to corresponding wells of a flat-bottom 96-well enzymatic assay plate. Substrate Mix (50 microliters) was added to each well of the latter plate, and the plate (protected from light) was incubated for 30 minutes at room temperature. Finally, 50 microliters of Stop Solution were added to each well, and absorbance (OD values) was measured at 490 nm. Each condition was tested in triplicates.
Preliminary experiments had been conducted in order to determine the optimal E:T ratio. The data shown below were obtained at a 20:1 E:T ratio with 10^5 RA1 target cells. The effector cells used in this study were prepared as follows: human peripheral blood mononuclear cells (PBMCs) obtained from a healthy donor were isolated by means of density gradient centrifugation using Lymphocyte Separation Medium (ref. J15-004, Invitrogen Corp., Carlsbad, Calif.). PBMCs at 2×10^6 per mL were cultured for two days in RPMI 1640 with 10% FCS, penicillin/streptomycin and 100 units per mL of human recombinant IL-2 (obtained from Roussel-Uclaf) in a 37° C. humidified incubator (5% CO2).
ADCC percentages obtained at different concentrations of test IgGs were calculated with the formula % ADCC=(f−e)/(b−a)×100, i.e., % ADCC=(OD of Target+Effector cells +/−Test Mab −OD of Spontaneous Release of Target+Effector cells)/(OD Maximal Release Target cells −OD Spontaneous Release of Target cells)×100.

| Compound | Mean Survival (RA1 cells [1]) [days] | Median Survival (RA1 cells [1]) [days] | Mice alive at the end of the study = day 81 (RA1 cells [1]) | % Increased life span (RA1 cells [1]) [%] | survival of mice (in words) (RA1 cells [1]) | inhibition at 1 µM (Human U937 cells) [%] | ADCC percentage (RA1 cells [2]; 0.0001 μg/mL) [%] | ADCC percentage (RA1 cells [2]; 0.001 μg/mL) [%] | ADCC percentage (RA1 cells [2]; 0.01 μg/mL) [%] | ADCC percentage (RA1 cells [2]; 0.1 μg/mL) [%] | ADCC percentage (RA1 cells [2]; 1 μg/mL) [%] |
| --- | --- | --- | --- | --- | --- | --- | --- | --- | --- | --- | --- |
| Xolair: isotypic control [reference compound] | 29 | 27 | 0/10 | 0 | died of disseminated disease with severe weight loss or were terminated because they were moribund within four weeks |  |  |  |  |  |  |
| c1cc(CN2CCCNCCNCCCNCC2)ccc1CN1CCCNCCNCCCNCC1 [AMD3100] |  |  |  |  |  | 98 |  |  |  |  |  |
| Rituximab: CD20 antibody Mabthera, used as positive control [reference compound] | 63 | 62 | 0/10 | 130 | lived significantly longer than control mice |  | 3 | 8 | 27 | 46 | 60 |
